Laboratory results published in patent publication US5240961A, “Method of treating reduced insulin-like growth factor and bone loss associated with aging” (priority 1992, dated 1993).
Values joined by “and” are separate entries in the source; they are usually repeats but may differ in a detail not shown here. Equal values may be shown once. “Also recorded” adds a separate entry of the source. Read-outs that look alike come from different tables or passages of the source.

Key:
[1] = test system: serum osteocalcin; experiment: Comparative effects of L-carnitine, acetyl carnitine and γ-butyrobetaine on serum osteocalcin in adult mice; format: in vivo, mouse (BALB/c male); conditions: for Osteocalcin: actual intake estimated about half
Method: (§1) The present invention is further explained by the following examples which should not be construed by way of limiting the scope of the present invention. In the following examples, serum carnitine levels were determined by the method of R. Parvin et al., Anal. Biochem., vol. 79 (1979) pp. 190-201. Serum IGF-1 concentrations were measured by immunoradiometric assay, for example, by IRMA Kit available from Diagnostic Systems Laboratories, Inc., Webster, Texas. Serum osteocalcin levels were measured according to the method of Grunaberg et al., Meth. Enzymology, vol 107 (1984) 516, and which is embodied in an osteocalcin kit available from Biomedical Technologies, Inc., Stoughton, Mass. All mice used in the animal studies were BALB/c strain which is commercially available.
(§2) Tests were performed to compare the effects on serum osteocalcin of diet supplementation with L-carnitine, its precursor, γ-butyrobetaine (available from Aldrich Chemical Co.) and one of its metabolites, acetylcarnitine (available from Life Science Resources, Milwaukee, Wis. 53223). Twenty adult mice, i.e., three months of age, (BALB/c male mice) were divided into seven groups. Each of the groups was fed diets as indicated hereinbelow for twelve weeks. One group (n=3) was fed a diet with L-carnitine supplementation at a dose of 50 mg/kg of body weight each day, while the second group (n=3) was fed L-carnitine at a daily dose of about 100 mg/kg. The third group (n=2) was fed a diet with acetylcarnitine supplementation at a daily dose of 50 mg/kg, while the fourth group (n=3) was fed a daily dose of 100 mg/kg of this compound. The fifth group (n=2) was fed a daily dose of 50 mg/kg of γ-butyrobetaine supplementation,while the sixth group was fed a daily dose of 100 mg/kg of γ-butyrobetaine. The seventh group (n=4) was fed normal, unsupplemented feed (control). Mouse blood was sampled prior to beginning of the trial (pretreatment), at six weeks, and at the end of the trial (twelve weeks). The samples were evaluated for serum osteocalcin levels at six and twelve weeks. Total carnitine was determined at twelve weeks.

[2] = Serum carnitine at 12 weeks in adult mice fed L-carnitine, acetyl carnitine or γ-butyrobetaine; design: species or system mouse (BALB/c male); conditions: mouse, in vivo, po
Method: as §1, §2

[3] = prolonged treatment, moderate or high doses; cited from earlier work
[4] = test system: body composition; conditions: replacement doses; cited from earlier work
[5] = compared to other vitamin D analogues; cited from earlier work
[6] = prolonged treatment, moderate or high doses; cited from earlier work; remark: listed apart in the source
[7] = human beings; cited from earlier work
[8] = test system: children with carnitine deficiency; conditions: carnitine repletion; cited from earlier work

CC(=O)O[C@H](CC(=O)[O-])C[N+](C)(C)C [acetyl L-carnitine, acetylcarnitine, reference compound]
significance of difference in osteocalcin vs control (p, student's t test) ([1]; 50 mg/kg/day): < 0.01
Osteocalcin ([1]; 50 mg/kg/day, 6 wks): 70 ng/mL and 70 ± 4 ng/mL
Osteocalcin ([1]; 50 mg/kg/day, 12 wks): 62 ng/mL
Osteocalcin ([1]; 100 mg/kg/day, 6 wks): 60 ng/mL and 61 ± 6 ng/mL
Osteocalcin ([1]; 100 mg/kg/day, 12 wks): 77 ng/mL
concentration at 2016 h ([2]; 50 mg/kg/day, 12 wks, read-out: Serum carnitine, Free): 45.6 µM
concentration at 2016 h ([2]; 50 mg/kg/day, 12 wks, read-out: Serum carnitine, Total): 59.6 µM
concentration at 2016 h ([2]; 100 mg/kg/day, 12 wks, read-out: Serum carnitine, Free): 52.1 µM
concentration at 2016 h ([2]; 100 mg/kg/day, 12 wks, read-out: Serum carnitine, Total): 65.1 µM

growth hormone: pituitary growth hormone, now readily available as a biosynthetic product
side-effects observed [3]: stimulation of neoplastic growth, acromegaly, amenorrhea, flushing and nausea, "dawn" phenomena (a condition of insulin insufficiency which is very dangerous for diabetics), either hyperglycemia or hypoglycemia in diabetics, and fluid retention
alterations in body composition [4]: can be reversed by replacement doses of the hormone

C=C1/C(=C\C=C2/CCC[C@]3(C)[C@@H]([C@H](C)/C=C/[C@H](C)C(C)C)CC[C@@H]23)C[C@@H](O)C[C@@H]1O [1α-hydroxy vitamin D2]
toxicity [5]: low toxicity

IGF-1: insulin-like growth factor 1, produced and released by the liver in response to growth hormone
potential side-effects [6]: abdominal bloating, indigestion and nausea, and alteration in cellular insulin receptor sites

C[N+](C)(C)CC(O)CC(=O)[O-] (stereo not drawn) [carnitine, β-hydroxy-γ-N-trimethylammounium butyrate]
serum half-life [7]: about 30 minutes
stunted growth [8]: normalizes with carnitine repletion

C[N+](C)(C)CCCC(=O)[O-] [γ-butyrobetaine, 4-trimethylamino butyrate]
significance of difference in osteocalcin vs control (p, student's t test) ([1]; 50 mg/kg/day): < 0.05
Osteocalcin ([1]; 50 mg/kg/day, 6 wks): 184 ng/mL and 184 ± 6 ng/mL
Osteocalcin ([1]; 50 mg/kg/day, 12 wks): 173 ng/mL
significance of difference in osteocalcin vs control (p, student's t test) ([1]; 100 mg/kg/day): < .01
Osteocalcin ([1]; 100 mg/kg/day, 6 wks): 220 ng/mL and 220 ± 75 ng/mL
Osteocalcin ([1]; 100 mg/kg/day, 12 wks): 122 ng/mL
effect on osteocalcin ([1]; adult mice, 50 and 100 mg/kg/day): stimulate osteocalcin production in adult mice; also recorded: maintained osteocalcin blood levels; also recorded: at least as effective as, and possibly better than, L-carnitine in increasing osteocalcin levels
concentration at 2016 h ([2]; 50 mg/kg/day, Serum carnitine, Free): 40.7 µM
concentration at 2016 h ([2]; 50 mg/kg/day, Serum carnitine, Total): 63.2 µM
concentration at 2016 h ([2]; 100 mg/kg/day, Serum carnitine, Free): 40.4 µM
concentration at 2016 h ([2]; 100 mg/kg/day, Serum carnitine, Total): 58.5 µM
